17 compounds from patent US7205296B2, “Substituted 2H-1,3-benzoxazin-4(3H)-ones” (Portola Pharmaceuticals, Inc., priority 2004, dated 2007) can be followed below.

A value given as a limit tells only on which side of the number the result lay.

Test [1] relates to ADP-induced human platelet aggregation. Briefly: PRP assay: inhibition of ADP-mediated platelet aggregation in vitro. The class given is cell-based. The conditions noted are these: IC50 class. Here is the method: I. Inhibition of ADP-Mediated Platelet Aggregation in vitro
The effect of testing the compound according to the invention on ADP-induced human platelet aggregation is preferably assessed in 96-well microtiter assay (see generally the procedures in Jantzen, H. M. et al. (1999) Thromb. Hemost. 81:111–117). Human venous blood is collected from healthy, drug-free volunteers into ACD (85 mM sodium citrate, 111 mM glucose, 71.4 mM citric acid) containing PGI2 (1.25 ml ACD containing 1.6 μM PGI2/10 ml blood; PGI2 was from Sigma, St. Louis, Mo.). Platelet-rich plasma (PRP) is prepared by centrifugation at 160×g for 20 minutes at room temperature. Washed platelets are prepared by centrifuging PRP for 10 minutes at 730×g and resuspending the platelet pellet in CGS (13 mM sodium citrate, 30 mM glucose, 120 mM NaCl; 2 ml CGS/10 ml original blood volume) containing 1 U/ml apyrase (grade V, Sigma, St. Louis, Mo.). After incubation at 37° C. for 15 minutes, the platelets are collected by centrifugation at 730×g for 10 minutes and resuspended at a concentration of 3×10^8 platelets/ml in Hepes-Tyrode's buffer (10 mM Hepes, 138 mM NaCl, 5.5 mM glucose, 2.9 mM KCl, 12 mM NaHCO3, pH 7.4) containing 0.1% bovine serum albumin, 1 mM CaCl2 and 1 mM MgCl2. This platelet suspension is kept >45 minutes at 37° C. before use in aggregation assays.
Inhibition of ADP-dependent aggregation is preferably determined in 96-well flat-bottom microtiter plates using a microtiter plate shaker and plate reader similar to the procedure described by Frantantoni et al., Am. J. Clin. Pathol. 94, 613 (1990). All steps are performed at room temperature. The total reaction volume of 0.2 ml/well includes in Hepes-Tyrodes buffer/0.1% BSA: 4.5×10^7 apyrase-washed platelets, 0.5 mg/ml human fibrinogen (American Diagnostica, Inc., Greenwich, Conn.), serial dilutions of test compounds (buffer for control wells) in 0.6% DMSO. After about 5 minutes preincubation at room temperature, ADP is added to a final concentration of 2 μM which induces submaximal aggregation. Buffer is added instead of ADP to one set of control wells (ADP^− control). The OD of the samples is then determined at 490 nm using a microtiter plate reader (Softmax, Molecular Devices, Menlo Park, Calif.) resulting in the 0 minute reading. The plates are then agitated for 5 min on a microtiter plate shaker and the 5 minute reading is obtained in the plate reader. Aggregation is calculated from the decrease of OD at 490 nm at t=5 minutes compared to t=0 minutes and is expressed as % of the decrease in the ADP control samples after correcting for changes in the unaggregated control samples.

In a further test the target is T1, platelet ADP receptors (Homo sapiens, UniProt Q9H244).
T1 construct: endogenous in cells; host or cells: whole apyrase-washed human platelets (outdated from blood banks, or fresh)
T1 sequence (Q9H244 whole entry): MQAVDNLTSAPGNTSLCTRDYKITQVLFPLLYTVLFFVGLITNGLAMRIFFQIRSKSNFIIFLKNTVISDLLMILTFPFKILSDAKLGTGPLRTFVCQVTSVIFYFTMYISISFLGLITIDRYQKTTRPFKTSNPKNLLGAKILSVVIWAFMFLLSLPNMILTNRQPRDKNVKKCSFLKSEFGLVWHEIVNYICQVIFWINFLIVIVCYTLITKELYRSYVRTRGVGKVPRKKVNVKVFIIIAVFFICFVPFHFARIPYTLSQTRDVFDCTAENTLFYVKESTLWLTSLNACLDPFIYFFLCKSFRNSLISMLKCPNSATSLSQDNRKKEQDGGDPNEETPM
The test is described as follows: ARB assay: inhibition of [3H]2-MeS-ADP binding to platelets. The conditions noted are these: IC50 class, [3H]2-MeS-ADP binding to whole human platelets. Here is the method:
II. Inhibition of [^3H]2-MeS-ADP Binding to Platelets
Utilizing the second assay the potency of inhibition of such compounds with respect to [^3H]2-MeS-ADP binding to whole platelets is determined. [^3H]2-MeS-ADP binding experiments are routinely performed with outdated human platelets collected by standard procedures at hospital blood banks. Apyrase-washed outdated platelets are prepared as follows (all steps at room temperature, if not indicated otherwise):
Outdated platelet suspensions are diluted with 1 volume of CGS and platelets pelleted by centrifugation at 1900×g for 45 minutes. Platelet pellets are resuspended at 3-6×10^9 platelets/ml in CGS containing 1 U/ml apyrase (grade V, Sigma, St. Louis, Mo.) and incubated for 15 minutes at 37° C. After centrifugation at 730×g for 20 minutes, pellets are resuspended in Hepes-Tyrode's buffer containing 0.1% BSA (Sigma, St. Louis, Mo.) at a concentration of 6.66×10^8 platelets/ml. Binding experiments are performed after >45 minutes resting of the platelets.
Alternatively, binding experiments are performed with fresh human platelets prepared as described in I. (Inhibition of ADP-Mediated Platelet Aggregation in vitro), except that platelets are resuspended in Hepes-Tyrode's buffer containing 0.1% BSA (Sigma, St. Louis, Mo.) at a concentration of 6.66×10^8 platelets/ml. Very similar results are obtained with fresh and outdated platelets.
A platelet ADP receptor binding assay using the tritiated potent agonist ligand [^3H]2-MeS-ADP (Jantzen, H. M. et al. (1999) Thromb. Hemost. 81:111–117) has been adapted to the 96-well microtiter format. In an assay volume of 0.2 ml Hepes-Tyrode's buffer with 0.1% BSA and 0.6% DMSO, 1×10^8 apyrase-washed platelets are preincubated in 96-well flat bottom microtiter plates for 5 minutes with serial dilutions of test compounds before addition of 1 nM [^3H]2-MeS-ADP ([^3H]2-methylthioadenosine-5′-diphosphate, ammonium salt; specific activity 48–49 Ci/mmole, obtained by custom synthesis from Amersham Life Science, Inc., Arlington Heights, Ill., or NEN Life Science Products, Boston, Mass.). Total binding is determined in the absence of test compounds. Samples for nonspecific binding may contain 10^−5 M unlabelled 2-MeS-ADP (RBI, Natick, Mass.). After incubation for 15 minutes at room temperature, unbound radioligand is separated by rapid filtration and two washes with cold (4–8° C.) Binding Wash Buffer (10 mM Hepes pH 7.4, 138 mM NaCl) using a 96-well cell harvester (Minidisc 96, Skatron Instruments, Sterling, Va.) and 8×12 GF/C glassfiber filtermats (Printed Filtermat A, for 1450 Microbeta, Wallac Inc., Gaithersburg, Md.). The platelet-bound radioactivity on the filtermats is determined in a scintillation counter (Microbeta 1450, Wallac Inc., Gaithersburg, Md.). Specific binding is determined by […] binding, and specific binding in the presence of test compounds is expressed as % of specific binding in the absence of test compounds dilutions.

Broadly, the IC50 is the point on the concentration scale where inhibition reaches its midpoint.

Take `CNc1cc2c(cc1F)C(=O)N(c1ccc(NC(=O)NS(=O)(=O)c3ccc(Cl)s3)nc1)CO2` [Example 41, 1-(5-chlorothiophen-2-ylsulfonyl)-3-(5-(6-fluoro-7-(methylamino)-4-oxo-2H-benzo[e][1,3]oxazin-3(4H)-yl)pyridin-2-yl)urea]: the IC50 in test [1] was less than 10000 nM; at platelet ADP receptors it was less than 50 nM. For `CNc1cc2c(cc1F)C(=O)N(c1ccc(NC(=O)NS(=O)(=O)c3ccc(C)s3)cc1)CO2` [Example 46, 1-(4-(6-fluoro-7-(methylamino)-4-oxo-2H-benzo[e][1,3]oxazin-3(4H)-yl)-3-5-methylthiophen-2ylsulfonyl)urea], in that order: 10000 to 30000 nM and less than 50 nM. For `CNc1cc2c(cc1F)C(=O)N(c1ccc(NC(=O)NS(=O)(=O)c3ccc(OC)s3)nc1)CO2` [Example 44, 1-(5-(6-fluoro-7-(methylamino)-4-oxo-2H-benzo[e][1,3]oxazin-3(4H)-yl)pyridin-2-yl)-3-(5-methoxythiophen-2-ylsulfonyl)urea], the IC50 in test [1] was more than 30000 nM; on platelet ADP receptors, 50 to 500 nM. `CNc1cc2c(cc1F)C(=O)N(c1ccc(C(=O)NS(=O)(=O)c3ccc(Cl)s3)cc1)CO2` [Example 56, N-(5-chlorothiophen-2-ylsulfonyl)-4-(6-fluoro-7-(methylamino) -4-oxo-2H-benzo[e] [1,3]oxazin-3(4H)-yl) benzamide]: the IC50 in test [1] was less than 10000 nM; on platelet ADP receptors, less than 50 nM. Regarding `CNc1cc2c(cc1F)C(=O)N(c1ccc(NC(=O)NS(=O)(=O)c3ccc(Cl)s3)c(C)c1)CO2` [Example 10, 1-(5-chlorothiophen-2-ylsulfonyl)-3-(4-(6-fluoro-7-(methylamino)-4-oxo-2H-benzo [e][1,3]oxazin-3(4H)-yl)-2-methylphenyl)urea], the 50% inhibitory concentration (IC50) in test [1] lay within 10000 to 30000 nM; at platelet ADP receptors, 50 to 500 nM.

For `CNc1cc2c(cc1F)C(=O)N(c1ccc(NC(=O)NS(=O)(=O)c3ccc(Cl)s3)c(C(N)=O)c1)CO2` [Example 39, 1-(2-carbamoyl-4-(6-fluoro-7-(methylamino)-4-oxo-2H-benzo[e][1,3]oxazin-3(4H)-yl)phenyl)-3-(5-chlorothiophen-2-ylsulfonyl)urea], the values for the half-maximal inhibitory concentration (IC50) (in test [1]; at platelet ADP receptors) were less than 10000 nM and less than 50 nM, respectively. For `CNc1cc2c(cc1F)C(=O)N(c1ccc(NC(=O)NS(=O)(=O)c3ccc(OC)s3)cc1)CO2` [Example 45], the IC50 was more than 30000 nM in test [1] and less than 50 nM at platelet ADP receptors.

Regarding `CNc1cc2c(cc1F)C(=O)N(c1ccc(NC(=O)NS(=O)(=O)c3ccc(Cl)s3)cc1)CO2` [Example 5, 1-(5-chlorothiophen-2-ylsulfonyl)-3-(4-(6-fluoro-7-(methylamino)-4-oxo-2H-benzo[e][1,3]oxazin-3(4H)-yl)phenyl)urea], the figures for the half-inhibitory concentration (IC50) (in test [1]; on platelet ADP receptors) were less than 10000 nM and less than 50 nM, respectively.

`CNc1cc2c(cc1F)C(=O)N(c1cnc(NC(=O)NS(=O)(=O)c3ccc(Cl)s3)c(C)c1)CO2` [Example 42, 1-(5-chlorothiophen-2-ylsulfonyl)-3-(5-(6-fluoro-7-(methylamino)-4-oxo-2H-benzo [e][1,3]oxazin-3(4H)-yl)-3-methylpyridin-2-yl)urea]: the values for the concentration for half-maximal inhibition (IC50) (in test [1]; on platelet ADP receptors) were less than 10000 nM and less than 50 nM, respectively. For `CNc1cc2c(cc1Cl)C(=O)N(c1ccc(NC(=O)NS(=O)(=O)c3ccc(Cl)s3)cc1)CO2` [Example 51, 1-(5-chlorothiophen-2-ylsulfonyl)-3-(4-(6-chloro-7-(methylamino)-4-oxo-2H-benzo[e][1,3]oxazin-3(4H)-yl)phenyl)urea], the figures for the IC50 (in test [1]; at platelet ADP receptors) were more than 30000 nM and less than 50 nM, respectively. For `CNc1cc2c(cc1F)C(=O)N(c1ccc(NC(=O)NS(=O)(=O)c3ccc(Cl)s3)c(OC)c1)CO2` [Example 27, 1-(5-chlorothiophen-2-ylsulfonyl)-3-(4-(6-fluoro-7-(methylamino)-4-oxo-2H-benzo[e][1,3]oxazin-3(4H)-yl)-2-methoxyphenyl)urea] the same measures were more than 30000 nM and less than 50 nM. For `CNc1cc2c(cc1F)C(=O)N(c1cc(C)c(NC(=O)NS(=O)(=O)c3ccc(Cl)s3)c(C)c1)CO2` [Example 26, (5-chlorothiophen-2-ylsulfonyl)-3-(4-(6-fluoro-7-(methylamino)-4-oxo-2H-benzo[e][1,3]oxazin-3(4H)-yl)-2,6-dimethylphenyl)urea], in that order: less than 10000 nM and less than 50 nM. For `CNc1cc2c(cc1F)C(=O)N(c1ccc(NC(=O)NS(=O)(=O)c3ccc(C)s3)nc1)CO2` [Example 43] the same measures were less than 10000 nM and less than 50 nM. For the compound `CNc1cc2c(cc1F)C(=O)N(c1ccc(C(=O)NS(=O)(=O)c3ccc(Cl)s3)c(F)c1)CO2` [Example 57, N-(5-chlorothiophen-2-ylsulfonyl)-2-fluoro-4-(6-fluoro-7-(methylamino)-4-oxo-2H-benzo[e][1,3]oxazin-3(4H)-yl) benzamide], the IC50 in test [1] was more than 30000 nM; at platelet ADP receptors, less than 50 nM. Consider `CCOCCOc1cc(NC(=O)NS(=O)(=O)c2ccc(Cl)s2)ccc1N1COc2cc(NC)c(F)cc2C1=O` [Example 20, 1-(5-chlorothiophen-2-ylsulfonyl)-3-(3-(2-ethoxyethoxy)-4-(6-fluoro-7-(methylamino)-4-oxo-2H-benzo[e][1,3]oxazin-3(4H)-yl)phenyl)urea], for which the half-maximal inhibitory concentration (IC50) at platelet ADP receptors is more than 500 nM.

Regarding `CNc1cc2c(cc1F)C(=O)N(c1ccc(NC(=O)NS(=O)(=O)c3ccc(Cl)s3)cc1OCCN(C)C)CO2` [Example 25, 1-(5-chlorothiophen-2-ylsulfonyl)-3-(3-(2-(dimethylamino)ethoxy)-4-(6-fluoro-7-(methylamino)-4-oxo-2H-benzo[e][1,3]oxazin-3(4H)-yl)phenyl)urea], the half-inhibitory concentration (IC50) on platelet ADP receptors was more than 500 nM. `CNc1cc2c(cc1F)C(=O)N(c1ccc(NC(=O)NS(=O)(=O)c3ccc(Cl)s3)c(C(=O)N(C)C)c1)CO2` [Example 37, 1-(5-chlorothiophen-2-ylsulfonyl)-3-(2-(dimethylcarbamoyl)-4-(6-fluoro-7-(methylamino)-4-oxo-2H-benzo[e][1,3]oxazin-3(4H)-yl)phenyl)urea]: the IC50 on platelet ADP receptors lay within 50 to 500 nM.
